Here are results for 22 compounds from US20160185797A1, “ALKYNYL ALCOHOLS AND METHODS OF USE” (Genentech, Inc., priority 2013, published 2016).

Like-named read-outs stand apart in the source and are kept apart here.

For assay [1], the target named is T1, nuclear factor-kappa B (NF-kB)-inducing kinase (NIK) (Homo sapiens, UniProt Q99558).
T1 construct: made in house; host or cells: baculovirus-infected insect cells
Kind of assay: NIK enzyme inhibition assay (Transcreener ADP fluorescence polarization, NIK ADP-FP). The class given is biochemical. In general terms: Polarisation of emitted light reports the rotation of a fluorescent probe.
Method: NIK Enzyme Inhibition Assay:
The ability of the nuclear factor-kappa B (NF-kB)-inducing kinase (NIK) to catalyze the hydrolysis of adenosine-5′-triphosphate (ATP) was monitored using the Transcreener ADP (adenosine-5′-diphosphate) assay (BellBrook Labs). […] Reactions were quenched by the addition of 20 mM 2,2′,2″,2′″-(ethane-1,2-diyldinitrilo)tetraacetic acid and 0.01% Brij 35. The tracer bound to the antibody was displaced by the ADP generated during the NIK reaction, which causes a decrease in fluorescence polarization that was measured by laser excitation at 633 nm with a Fluorescence Correlation Spectroscopy Plus reader (Evotec AG). Equilibrium dissociation constant (Ki) values for NIK inhibitors are calculated from plots of activity vs. inhibitor concentration using Morrison's quadratic equation that accounts for the potential of tight binding, and by also applying the conversion factor that accounted for competitive inhibition and the concentration of substrate used in the assay relative to its Michaelis constant (Km).

For assay [2], the system named is REL-A (p65) nuclear translocation in HeLa cells. Kind of assay: REL-A (p65) nuclear translocation assay in HeLa cells, TNF-α stimulated (classical NF-kB signaling), high content imaging. Particulars: compound 4.5 h, then 10 ng/mL TNF-α for 30 minutes, read-out: REL-A HeLa Transloc Assay (IC50). The class given is cell-based. In a few lines:
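HeLa cells in medium with 10% fetal bovine serum were exposed to compounds (0.2% DMSO final) for 4.5 hours, then stimulated with 10 ng/mL TNF-α for 30 minutes. After fixation in 4% paraformaldehyde and permeabilization with 0.1% Triton X-100, cells were stained with 400 ng/mL anti-REL-A (p65) antibody, an Alexa488 secondary and DRAQ5. Opera imaging quantified the nuclear-to-cytoplasmic signal ratio to give IC50.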

Assay [3] has as its system p52 (NF-kB2) nuclear translocation in HeLa cells. Kind of assay: p52 (NF-kB2) nuclear translocation assay in HeLa cells, anti-lymphotoxin beta receptor antibody stimulated (non-classical NF-kB signaling), high content imaging. The format is cell-based. Particulars: 100 ng/mL anti-lymphotoxin beta receptor antibody for 5 hours, read-out: p52 HeLa Transloc Assay (IC50). Put shortly: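 HeLa cells in 10% FBS medium were treated with compound (0.2% DMSO final) and stimulated with 100 ng/mL anti-lymphotoxin beta receptor antibody for 5 h. Fixed cells were immunostained for p52 and imaged with DRAQ5 nuclear stain. Translocation is the nuclear to cytoplasmic intensity ratio, […].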

T1 sequence (Q99558 whole entry): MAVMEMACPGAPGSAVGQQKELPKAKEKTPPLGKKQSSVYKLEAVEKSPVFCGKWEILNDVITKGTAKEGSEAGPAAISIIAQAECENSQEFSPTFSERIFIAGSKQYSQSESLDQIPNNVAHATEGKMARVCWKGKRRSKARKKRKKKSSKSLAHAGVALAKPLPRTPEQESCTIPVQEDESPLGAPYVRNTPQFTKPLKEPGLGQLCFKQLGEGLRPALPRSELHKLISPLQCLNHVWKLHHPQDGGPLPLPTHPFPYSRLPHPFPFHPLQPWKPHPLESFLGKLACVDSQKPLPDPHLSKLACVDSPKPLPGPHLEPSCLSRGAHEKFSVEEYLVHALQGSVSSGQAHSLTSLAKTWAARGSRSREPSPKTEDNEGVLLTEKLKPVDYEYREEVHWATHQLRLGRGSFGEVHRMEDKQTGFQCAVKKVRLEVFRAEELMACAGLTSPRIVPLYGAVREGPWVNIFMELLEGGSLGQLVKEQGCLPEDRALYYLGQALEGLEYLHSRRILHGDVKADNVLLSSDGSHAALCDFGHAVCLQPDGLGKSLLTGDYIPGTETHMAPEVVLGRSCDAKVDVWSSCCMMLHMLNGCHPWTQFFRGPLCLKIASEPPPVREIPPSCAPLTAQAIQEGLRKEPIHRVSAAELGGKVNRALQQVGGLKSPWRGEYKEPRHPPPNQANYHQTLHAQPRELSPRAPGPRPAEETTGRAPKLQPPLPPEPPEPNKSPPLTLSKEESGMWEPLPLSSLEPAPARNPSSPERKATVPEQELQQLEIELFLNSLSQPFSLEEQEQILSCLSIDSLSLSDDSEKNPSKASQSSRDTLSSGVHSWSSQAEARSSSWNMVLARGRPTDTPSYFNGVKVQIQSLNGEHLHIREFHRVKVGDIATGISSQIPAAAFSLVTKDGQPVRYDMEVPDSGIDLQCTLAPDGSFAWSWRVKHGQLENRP

The compound `COCCNc1cc(F)c(-c2cccc(C#C[C@]3(O)CCN(C)C3=O)c2)nc1C(N)=O` [Example 80, 5-fluoro-6-[3-[2-[(3R)-3-hydroxy-1-methyl-2-oxo-pyrrolidin-3-yl]ethynyl]phenyl]-3-(2-methoxyethylamino) pyridine-2-carboxamide] came in with a Ki in assay [1] of 0.05 nM. Also, the IC50 was ≥ 20000 nM in assay [2] (Homo sapiens, HeLa) and 4.65 nM in assay [3] (Homo sapiens).
The like results for `CN1CC[C@@](O)(C#Cc2cccc(-c3nc(C(N)=O)c(NC[C@@H]4CCO4)cc3F)c2)C1=O` [Example 81, 5-fluoro-6-[3-[2-[(3R)-3-hydroxy-1-methyl-2-oxo-pyrrolidin-3-yl]ethynyl]phenyl]-3-[[(2S)-oxetan-2-yl]methylamino] pyridine-2-carboxamide] were, in that order, 0.05 nM, ≥ 2000 nM and 50.8 nM.
The like results for `CN1CC[C@@](O)(C#Cc2cccc(-c3nc(C(N)=O)c(NC[C@H]4CCO4)cc3F)c2)C1=O` [Example 82, 5-fluoro-6-[3-[2-[(3R)-3-hydroxy-1-methyl-2-oxo-pyrrolidin-3-yl]ethynyl]phenyl]-3-[[(2R)-oxetan-2-yl]methylamino] pyridine-2-carboxamide] were, in that order, 0.33 nM, ≥ 2000 nM and 95.5 nM.
In turn, `CN1CC[C@@](O)(C#Cc2cccc(-c3nc(C(N)=O)c(NCC(F)(F)F)cc3F)c2)C1=O` [Example 83, 5-fluoro-6-[3-[2-[(3R)-3-hydroxy-1-methyl-2-oxo-pyrrolidin-3-yl]ethynyl]phenyl]-3-(2,2,2-trifluoroethylamino) pyridine-2-carboxamide] had a Ki in assay [1] of 0.15 nM. Moreover, the IC50 turned out to be 1000 nM in assay [2] (Homo sapiens, HeLa) and 11 nM in assay [3] (Homo sapiens).
In the case of `CN1CC[C@@](O)(C#Cc2ccc(F)c(-c3ccc(N)c(C(N)=O)n3)c2)C1=O` [Example 84, 3-amino-6-[2-fluoro-5-[2-[(3R)-3-hydroxy-1-methyl-2-oxo-pyrrolidin-3-yl]ethynyl]phenyl] pyridine-2-carboxamide], the affinity in assay [1], expressed as Ki, was 0.05 nM. The IC50 in assay [2] (Homo sapiens, HeLa) came to 1000 nM; in assay [3] (Homo sapiens) it was 14.2 nM.
In the same order, the values of `CN1CC[C@@](O)(C#Cc2ccc(F)c(-c3ccc(NC4COC4)c(C(N)=O)n3)c2)C1=O` [Example 85, 6-[2-fluoro-5-[2-[(3R)-3-hydroxy-1-methyl-2-oxo-pyrrolidin-3-yl]ethynyl]phenyl]-3-(oxetan-3-ylamino)pyridine-2-carboxamide] are 0.05 nM, 6320 nM and 5.88 nM.
In the same order, the values of `COCCNc1ccc(-c2cc(C#C[C@]3(O)CCN(C)C3=O)ccc2F)nc1C(N)=O` [Example 86, 6-[2-fluoro-5-[2-[(3R)-3-hydroxy-1-methyl-2-oxo-pyrrolidin-3-yl]ethynyl]phenyl]-3-(2-methoxyethylamino) pyridine-2-carboxamide] are 0.1 nM, ≥ 20000 nM and 6.27 nM.
In the same order, the values of `CN1CC[C@@](O)(C#Cc2cccc(-c3ncc(NC4CC4)c(C(N)=O)n3)c2)C1=O` [Example 87, 5-(cyclopropylamino)-2-[3-[2-[(3R)-3-hydroxy-1-methyl-2-oxo-pyrrolidin-3-yl]ethynyl]phenyl] pyrimidine-4-carboxamide] are 0.14 nM, 1000 nM and 4 nM.
Turning to `CN1CC[C@@](O)(C#Cc2cccc(-c3ncc(NC4COC4)c(C(N)=O)n3)c2)C1=O` [Example 88, 2-[3-[2-[(3R)-3-hydroxy-1-methyl-2-oxo-pyrrolidin-3-yl]ethynyl]phenyl]-5-(oxetan-3-ylamino) pyrimidine-4-carboxamide], the inhibition constant Ki in assay [1] is 0.05 nM. Moreover, the IC50 was ≥ 20000 nM in assay [2] (Homo sapiens, HeLa) and 2.12 nM in assay [3] (Homo sapiens).
In turn, `COCCNc1cnc(-c2cccc(C#C[C@]3(O)CCN(C)C3=O)c2)nc1C(N)=O` [Example 89, 2-[3-[2-[(3R)-3-hydroxy-1-methyl-2-oxo-pyrrolidin-3-yl]ethynyl]phenyl]-5-(2-methoxyethylamino) pyrimidine-4-carboxamide] came in with an inhibitory constant (Ki) in assay [1] of 0.05 nM. In addition, the IC50 in assay [2] (Homo sapiens, HeLa) is 1000 nM; in assay [3] (Homo sapiens), 32.4 nM.
The like results for `CN1CC[C@@](O)(C#Cc2ccc(F)c(-c3cccc(C(N)=O)n3)c2)C1=O` [Example 92, 6-[2-fluoro-5-[2-[(3R)-3-hydroxy-1-methyl-2-oxo-pyrrolidin-3-yl]ethynyl]phenyl]pyridine-2-carboxamide] were, in that order, 0.39 nM, ≥ 20000 nM and 133 nM.
In the same order, the values of `COc1ccc2nc(-c3cccc(C#C[C@]4(O)CCN(C)C4=O)c3)nc(C(N)=O)c2c1` [Example 93, 2-[3-[2-[(3R)-3-hydroxy-1-methyl-2-oxo-pyrrolidin-3-yl]ethynyl]phenyl]-6-methoxy-quinazoline-4-carboxamide] are 0.15 nM, 6320 nM and 21 nM.
In assay [1], `Cc1cc(C#C[C@]2(O)CCN(C)C2=O)cc(-c2nccc(C(N)=O)n2)c1` [Example 94, 2-[3-[2-[(3R)-3-hydroxy-1-methyl-2-oxo-pyrrolidin-3-yl]ethynyl]-5-methyl-phenyl]pyrimidine-4-carboxamide] came in with an inhibitory constant (Ki) of 1.41 nM. The IC50 in assay [2] (Homo sapiens, HeLa) is ≥ 20000 nM; in assay [3] (Homo sapiens), 175 nM.
In the same order, the values of `Cc1ccc(-c2cc(C(N)=O)nc(-c3cccc(C#C[C@]4(O)CCN(C)C4=O)c3)n2)cn1` [Example 95, 2-[3-[2-[(3R)-3-hydroxy-1-methyl-2-oxo-pyrrolidin-3-yl]ethynyl]phenyl]-6-(6-methyl-3-pyridyl)pyrimidine-4-carboxamide] are 0.49 nM, ≥ 20000 nM and 55.2 nM.
On to `CN1CC[C@@](O)(C#Cc2cccc(-c3nc(C(N)=O)cc(-c4cnccn4)n3)c2)C1=O` [Example 96, 2-[3-[2-[(3R)-3-hydroxy-1-methyl-2-oxo-pyrrolidin-3-yl]ethynyl]phenyl]-6-pyrazin-2-yl-pyrimidine-4-carboxamide], for which affinity in assay [1] was put at a Ki of 0.45 nM. The IC50 in assay [2] (Homo sapiens, HeLa) is ≥ 20000 nM; in assay [3] (Homo sapiens), 34.7 nM.
In the same order, the values of `CN1CC[C@@](O)(C#Cc2cccc(-c3nc(C(N)=O)cc(-c4cc(F)cc(F)c4)n3)c2)C1=O` [Example 97, 6-(3,5-difluorophenyl)-2-[3-[2-[(3R)-3-hydroxy-1-methyl-2-oxo-pyrrolidin-3-yl]ethynyl]phenyl]pyrimidine-4-carboxamide] are 0.37 nM, ≥ 20000 nM and 57.5 nM.
`CN1CC[C@@](O)(C#Cc2cccc(-c3nc(C(N)=O)cc(-c4cc(F)ccc4F)n3)c2)C1=O` [Example 98, 6-(2,5-difluorophenyl)-2-[3-[2-[(3R)-3-hydroxy-1-methyl-2-oxo-pyrrolidin-3-yl]ethynyl]phenyl]pyrimidine-4-carboxamide] showed a Ki in assay [1] of 0.23 nM. The IC50 in assay [2] (Homo sapiens, HeLa) is ≥ 20000 nM; in assay [3] (Homo sapiens) it was 82 nM.
In assay [1], `CN1CC[C@@](O)(C#Cc2cccc(-c3nc(OC4COC4)cc(C(N)=O)n3)c2)C1=O` [Example 99, 2-[3-[2-[(3R)-3-hydroxy-1-methyl-2-oxo-pyrrolidin-3-yl]ethynyl]phenyl]-6-(oxetan-3-yloxy) pyrimidine-4-carboxamide] returned a Ki of 0.48 nM. Also, the IC50 was ≥ 20000 nM in assay [2] (Homo sapiens, HeLa) and 104 nM in assay [3] (Homo sapiens).
In the same order, the values of `CN1CC[C@@](O)(C#Cc2cccc(-c3ncc(NCC4COC4)c(C(N)=O)n3)c2)C1=O` [Example 100, 2-[3-[2-[(3R)-3-hydroxy-1-methyl-2-oxo-pyrrolidin-3-yl]ethynyl]phenyl]-5-(oxetan-3-ylmethylamino) pyrimidine-4-carboxamide] are 0.1 nM, ≥ 20000 nM and 11.6 nM.
In the same order, the values of `COC(C)(C)CNc1cnc(-c2cccc(C#C[C@]3(O)CCN(C)C3=O)c2)nc1C(N)=O` [Example 101, 2-[3-[2-[(3R)-3-hydroxy-1-methyl-2-oxo-pyrrolidin-3-yl]ethynyl]phenyl]-5-[(2-methoxy-2-methyl-propyl)amino]pyrimidine-4-carboxamide] are 0.52 nM, ≥ 20000 nM and 92.6 nM.
In the same order, the values of `CN1CC[C@@](O)(C#Cc2cccc(-c3ncc(NCCN4CCOCC4)c(C(N)=O)n3)c2)C1=O` [Example 102, 2-[3-[2-[(3R)-3-hydroxy-1-methyl-2-oxo-pyrrolidin-3-yl]ethynyl]phenyl]-5-(2-morpholinoethylamino) pyrimidine-4-carboxamide] are 0.21 nM, ≥ 20000 nM and 66.9 nM.
In assay [1] (purified NIK 0.5 nM, 10 μM ATP, pH 7.2, Ki from Morrison's quadratic equation), `Cc1cnn(-c2cc(C(N)=O)nc(-c3cccc(C#C[C@]4(O)CCN(C)C4=O)c3)n2)c1` [Example 104, 2-[3-[2-[(3R)-3-hydroxy-1-methyl-2-oxo-pyrrolidin-3-yl]ethynyl]phenyl]-6-(4-methylpyrazol-1-yl) pyrimidine-4-carboxamide] registered an inhibition constant (Ki) of 0.4 nM. Also, the IC50 was ≥ 20000 nM in assay [2] and 69.2 nM in assay [3].

What is called Ki is the equilibrium dissociation constant of an inhibitor or competing ligand from its target. Broadly, the IC50 is the point on the concentration scale where inhibition reaches its midpoint.
